# Legend:
# monoamine oxidase (MAO) = conditions: background; cited from earlier work
# MAO-A [1] = assay: In vitro inhibition of MAO-A in mitochondrial extracts of rat or human brain (double-label assay); assay type: biochemical
# Description: (§1) MAO was assayed with [^3 H]serotonin (0.2 mM, 5G/mole) and [^14 C]β-phenethylamine (10 μM, 3 G/mole) as substrate in a double-label assay (White and Glassman, J. Neurochem, 29:987-97 (1977)). Under these conditions, serotonin is selectively metabolised by MAO-A and β-phenethylamine by MAO-B.
# [2] = Acute oral toxicity, rats; assay type: in vivo; conditions: up to 1000 mg/kg., p.o.
# MAO-A (brain) = assay: In vivo inhibition of brain MAO-A (ex vivo assay after oral dosing); set-up: species or system male Sprague-Dawley rats; conditions: for Percentage inhibition of MAO-A, Brain: 3 hours after dosing; for inhibition of brain MAO-A by the time of tyramine administration: single oral dose, 3 hours later (tyramine pressor study)
# Description: To determine MAO inhibition in brains and livers of rats pretreated with a reversible inhibitor, it was necessary to use an assay procedure that minimized dilution of the compound. Thus, high concentrations of tissue homogenates were incubated for very short periods of time. For brain assays, initial tissue was 3-fold diluted into each assay. […] Further dilution of liver homogenates was necessary in order to obtain reliable data. Substrate concentrations were not saturating, but were chosen relative to Km values for serotonin and β-phenethylamine in order to give an estimate of MAO-A and MAO-B, respectively. Brains from pretreated male Sprague-Dawley rats ([…]) were homogenized in a buffer consisting of 0.1 M potassium phosphate and 5% sucrose (pH 7.4) at a 1:1 tissue weight/buffer volume ratio, using a motorized Teflon/glass homogenizer. MAO-A and MAO-B were determined by incubating 100 μL of tissue homogenate with 50 μL of a double-label substrate mixture to give final concentrations of [^3 H]serotonin, 0.4 mM (5C/mole) and [^14 C]β-phenethylamine, 20 μM (3C/mole). For blank assays, 100 μL portions of homogeneous were pre-incubated for 15 min. at 37° C. with pargyline (4 mM) before substrate addition. Incubations with substrate present were at 37° C. for 30 sec. Assay mixtures were then acidified and products extracted as in the above in vitro method (White and Glassman, loc. cit.).
# MAO-A (liver) = assay: In vivo inhibition of liver MAO-A (ex vivo assay after oral dosing); set-up: species or system rats
# Description: To determine MAO inhibition in brains and livers of rats pretreated with a reversible inhibitor, it was necessary to use an assay procedure that minimized dilution of the compound. Thus, high concentrations of tissue homogenates were incubated for very short periods of time. For brain assays, initial tissue was 3-fold diluted into each assay. […] Further dilution of liver homogenates was necessary in order to obtain reliable data. Substrate concentrations were not saturating, but were chosen relative to Km values for serotonin and β-phenethylamine in order to give an estimate of MAO-A and MAO-B, respectively. Brains from pretreated male Sprague-Dawley rats (sacrificed 3 hours after oral dosing with the test compound) were homogenized in a buffer consisting of 0.1 M potassium phosphate and 5% sucrose (pH 7.4) at a 1:1 tissue weight/buffer volume ratio, using a motorized Teflon/glass homogenizer. MAO-A and MAO-B were determined by incubating 100 μL of tissue homogenate with 50 μL of a double-label substrate mixture to give final concentrations of [^3 H]serotonin, 0.4 mM (5C/mole) and [^14 C]β-phenethylamine, 20 μM (3C/mole). For blank assays, 100 μL portions of homogeneous were pre-incubated for 15 min. at 37° C. with pargyline (4 mM) before substrate addition. Incubations with substrate present were at 37° C. for 30 sec. Assay mixtures were then acidified and products extracted as in the above in vitro method (White and Glassman, loc. cit.).
# Liver tissue was homogenized in the above phosphate-sucrose buffer at a 1:5 tissue weight/buffer volume ratio. Portions (100 μL) of homogenate were incubated with 50 μL of the above double-label substrate mixture. Blank assays included the same volume of homogenate pre-incubated with 4 mM pargyline for 15 min. at 37° C. After addition of substrates, mixtures were incubated at 37° C. for 30 sec, acidified, and products extracted as above.
# MAO-A [3] = assay: Kinetic mechanism of MAO-A inhibition in vitro (substrate serotonin or tyramine varied); assay type: biochemical, rat or human
# Description: as §1
# For studies of the kinetic mechanism of inhibition, the above method was used except that a single substrate, serotonin or tyramine, was varied over a 10-fold concentration range that included the Km concentration. When tyramine was used as substrate, the extract was pretreated with deprenyl (1 μM) to inhibit all MAO-B activity. MAO-A activity was determined in the absence and presence of the compound under test at each substrate concentration in duplicate or triplicate assays.
# MAO-B (liver) = assay: In vivo inhibition of liver MAO-B (ex vivo assay after oral dosing); set-up: species or system rats; conditions: 5, 10, 20 mg/kg p.o.
# Description: (§2) To determine MAO inhibition in brains and livers of rats pretreated with a reversible inhibitor, it was necessary to use an assay procedure that minimized dilution of the compound. Thus, high concentrations of tissue homogenates were incubated for very short periods of time. For brain assays, initial tissue was 3-fold diluted into each assay. Because of the very high MAO activity. Further dilution of liver homogenates was necessary in order to obtain reliable data. Substrate concentrations were not saturating, but were chosen relative to Km values for serotonin and β-phenethylamine in order to give an estimate of MAO-A and MAO-B, respectively. Brains from pretreated male Sprague-Dawley rats (sacrificed 3 hours after oral dosing with the test compound) were homogenized in a buffer consisting of 0.1 M potassium phosphate and 5% sucrose (pH 7.4) at a 1:1 tissue weight/buffer volume ratio, using a motorized Teflon/glass homogenizer. MAO-A and MAO-B were determined by incubating 100 μL of tissue homogenate with 50 μL of a double-label substrate mixture to give final concentrations of [^3 H]serotonin, 0.4 mM (5C/mole) and [^14 C]β-phenethylamine, 20 μM (3C/mole). For blank assays, 100 μL portions of homogeneous were pre-incubated for 15 min. at 37° C. with pargyline (4 mM) before substrate addition. Incubations with substrate present were at 37° C. for 30 sec. […]
# [4] = Acute oral toxicity, mice; assay type: in vivo; conditions: up to 1000 mg/kg., p.o.
# MAO-A [5] = assay: Reversibility of binding to MAO-A by dialysis
# [6] = tested on: elevation of blood pressure by orally ingested tyramine; assay: Response to orally ingested tyramine (elevation of blood pressure) in test mammals; assay type: in vivo; conditions: oral antidepressant doses prior to orally ingested tyramine
# MAO-B (brain) = assay: In vivo inhibition of brain MAO-B (ex vivo assay after oral dosing); set-up: species or system male Sprague-Dawley rats; conditions: 5, 10, 20 mg/kg p.o.
# Description: as §2
structure (smiles),measurement,setting,value
Cc1cc(C(=O)NNCc2ccccc2)no1 [isocarboxazid],type of MAO inhibition,monoamine oxidase (MAO),"non-selective, irreversible inhibitors"
"CCc1cccc2c1S(=O)(=O)c1ccccc1O2 [Compound I, 1-Ethylphenoxathiin 10,10-dioxide]",inhibition of MAO-A (in words),MAO-A [1],potent selective inhibition of MAO-A
same,IC50,MAO-A [1]; read-out: I50 (concentration producing 50% inhibition),35 nM
same,visible effects after acute doses,[2],No visible effects
same,"Percentage inhibition of MAO-A, Brain",MAO-A (brain); 5 mg/kg p.o.,18.5 ± 8.1%
same,"Percentage inhibition of MAO-A, Brain",MAO-A (brain); 10 mg/kg p.o.,65.2 ± 6.6%
same,"Percentage inhibition of MAO-A, Brain",MAO-A (brain); 20 mg/kg p.o.,82.4 ± 2.6%
same,time of peak inhibition of brain MAO-A,MAO-A (brain); oral dose of 20 mg/kg,1 to 6 h
same,inhibition of brain MAO-A at 24 hours after dosing,"MAO-A (brain); oral dose of 20 mg/kg, 24 hours",negligible
same,inhibition of brain MAO-A by the time of tyramine administration,MAO-A (brain),approximately 80%
same,"Percentage inhibition of MAO-A, Liver",MAO-A (liver); 5 mg/kg p.o.,32.8 ± 6.4%
same,"Percentage inhibition of MAO-A, Liver",MAO-A (liver); 10 mg/kg p.o.,61.8 ± 4.4%
same,"Percentage inhibition of MAO-A, Liver",MAO-A (liver); 20 mg/kg p.o.,78.9 ± 1.6%
same,type of inhibition vs. the substrate serotonin or tyramine,MAO-A [3]; substrate serotonin or tyramine,competitive
same,Ki,MAO-A [3]; vs. substrate serotonin,10 nM
same,Ki,"MAO-A [3]; vs. substrate tyramine, extract pretreated with deprenyl (1 μM)",10 nM
same,"inhibition of MAO-B, liver",MAO-B (liver),no significant inhibition
same,visible effects after acute doses,[4],No visible effects
same,"binding to MAO-A, removal from its complex by dialysis",MAO-A [5],reversibly bound to MAO-A
same,increase in response (elevation of blood pressure) to orally ingested tyramine,[6],No pharmacologically significant increase in response
same,"inhibition of MAO-B, brain",MAO-B (brain),no significant inhibition
N[C@@H]1C[C@H]1c1ccccc1 (relative stereo) [tranylcypromine],type of MAO inhibition,monoamine oxidase (MAO),"non-selective, irreversible inhibitors"
"NNCCc1ccccc1 [pheneizine, reference compound]",type of MAO inhibition,monoamine oxidase (MAO),"non-selective, irreversible inhibitors"
same,inhibition of brain MAO-A by the time of tyramine administration,MAO-A (brain),approximately 80%
same,inhibition of liver MAO-A in tyramine pressor study,MAO-A (liver); single oral dose producing approximately 80% inhibition of brain MAO-A,≥ 90%

# Reference: US5420156A, “Pharmacologically active compound and use” (Burroughs Wellcome Co., priority 1989, dated 1995)
